pIC50: −log10 of the molar value. The source made the active and inactive calls. No cut-off for these calls is given here.
Key:
[1] = Toxicity in Balb/c mouse xenografted with human HepG2 cells assessed as effect on lung at 20 mg/kg, iv administered daily in presence of palladium resins for 14 days by H and E staining based analysis; assay type: organism-based; details: in vivo, 336 h, time 14 day
[2] = system: K562; assay: Induction of apoptosis in human K562 cells assessed as early apoptotic cells at 80 nM incubated for 72 hrs by Annexin V-APC staining based flow cytometric analysis (reference value: 2.78%); assay type: functional
[3] = Select factor, ratio of test compound IC50 to 5-fluoro-N-(3-hydroxy-4-methoxybenzyl)-2-morpholinobenzamide IC50 for antiproliferative activity against human THLE-2 cells assessed as reduction in cell viability incubated for 72 hrs by CCK-8 assay; assay type: toxicity, cell-based; details: read-out: Ratio IC50
[4] = Toxicity in Balb/c mouse xenografted with human HepG2 cells assessed as effect on kidney at 20 mg/kg, iv administered daily in presence of palladium resins for 14 days by H and E staining based analysis; assay type: organism-based; details: in vivo, 336 h, time 14 day
[5] = biological target: T1, Tubulin (Homo sapiens) (UniProt P68371+Q9H4B7+P0DPH7+P68366+Q13509+Q71U36+P04350+Q3ZCM7+P07437+P68363+Q9BQE3+Q6PEY2+Q13885+Q9BVA1+Q9BUF5); assay: In vivo inhibition of tubulin polymerization in human HepG2 cells xenografted in Balb/c mouse assessed as decrease in alpha tubulin expression at 20 mg/kg, iv administered daily for 14 days in presence of palladium resins incubated for 24 hrs by Western blot analysis; assay type: functional, organism-based; details: time 14.0 day
[6] = system: HUVEC; assay: Antivascular activity against HUVEC cells assessed as inhibition of cell migration at 80 nM incubated for 24 hrs by phase contrast microscopic analysis; assay type: functional, cell-based; details: Homo sapiens
[7] = system: HepG2; assay: Antiproliferative activity against human HepG2 cells assessed as reduction in cell viability incubated for 72 hrs by CCK-8 assay; assay type: functional, cell-based; details: HepG2, 72 h
[8] = system: K562; assay: Induction of apoptosis in human K562 cells assessed as necrotic cells at 80 nM incubated for 72 hrs in presence of palladium resins by Annexin V-APC staining based flow cytometric analysis (reference value: 1.65%); assay type: functional
[9] = Prodrug release in PBS buffer assessed as half release time of 5-fluoro-N-(3-hydroxy-4-methoxybenzyl)-2-morpholinobenzamide in presence of palladium resins at 75 uM by HPLC analysis; assay type: ADME
[10] = Toxicity in Balb/c mouse xenografted with human HepG2 cells assessed as effect on heart at 20 mg/kg, iv administered daily in presence of palladium resins for 14 days by H and E staining based analysis; assay type: organism-based; details: in vivo, 336 h, time 14 day
[11] = biological target: T1, Tubulin (Homo sapiens); assay: In vivo inhibition of tubulin polymerization in human HepG2 cells xenografted in Balb/c mouse assessed as decrease in beta tubulin expression at 20 mg/kg, iv administered daily for 14 days in presence of palladium resins incubated for 24 hrs by Western blot analysis; assay type: functional, organism-based; details: time 14.0 day
[12] = Antiproliferative activity against human THLE-2 cells assessed as reduction in cell viability incubated for 72 hrs by CCK-8 assay; assay type: toxicity, cell-based
[13] = biological target: Bcr/Abl fusion protein (Homo sapiens) (UniProt P00519+P11274); assay: Inhibition of Bcr-Abl in human K562 cells at 80 nM incubated for 24 hrs in presence of palladium resins by Western blotting analysis; assay type: cell-based
Sequence of Bcr/Abl fusion protein (Homo sapiens) (P00519 whole entry, looked up, the tested form may be a part): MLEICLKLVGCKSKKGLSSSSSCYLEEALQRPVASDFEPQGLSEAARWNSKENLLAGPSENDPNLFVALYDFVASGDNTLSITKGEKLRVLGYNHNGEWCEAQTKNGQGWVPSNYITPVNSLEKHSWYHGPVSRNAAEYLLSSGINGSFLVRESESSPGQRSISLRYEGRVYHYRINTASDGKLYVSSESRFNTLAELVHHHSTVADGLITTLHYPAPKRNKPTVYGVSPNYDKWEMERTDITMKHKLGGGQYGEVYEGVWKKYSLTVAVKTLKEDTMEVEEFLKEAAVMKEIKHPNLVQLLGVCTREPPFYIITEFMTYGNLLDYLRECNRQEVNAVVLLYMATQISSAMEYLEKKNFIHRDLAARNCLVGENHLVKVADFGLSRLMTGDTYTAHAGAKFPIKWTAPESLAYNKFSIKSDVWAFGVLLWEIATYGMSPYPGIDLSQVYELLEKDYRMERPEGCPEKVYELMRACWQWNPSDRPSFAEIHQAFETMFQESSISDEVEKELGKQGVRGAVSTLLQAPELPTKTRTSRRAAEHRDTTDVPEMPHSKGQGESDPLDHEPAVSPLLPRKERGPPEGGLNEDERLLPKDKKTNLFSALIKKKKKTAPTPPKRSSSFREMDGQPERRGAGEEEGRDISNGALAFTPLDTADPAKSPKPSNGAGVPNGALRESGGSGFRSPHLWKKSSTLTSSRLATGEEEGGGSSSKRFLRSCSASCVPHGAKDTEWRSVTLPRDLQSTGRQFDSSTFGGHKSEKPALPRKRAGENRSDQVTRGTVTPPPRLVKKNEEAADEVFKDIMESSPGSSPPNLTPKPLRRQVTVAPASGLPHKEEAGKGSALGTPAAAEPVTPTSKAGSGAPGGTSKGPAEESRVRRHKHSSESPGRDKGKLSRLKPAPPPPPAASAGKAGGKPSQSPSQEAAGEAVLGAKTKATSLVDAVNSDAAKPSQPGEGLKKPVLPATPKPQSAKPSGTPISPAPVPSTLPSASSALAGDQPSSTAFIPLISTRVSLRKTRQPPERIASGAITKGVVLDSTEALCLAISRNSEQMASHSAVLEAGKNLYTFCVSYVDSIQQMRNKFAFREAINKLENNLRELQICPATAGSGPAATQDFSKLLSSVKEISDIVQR
Sequence of Bcr/Abl fusion protein (Homo sapiens) (P11274 whole entry, looked up, the tested form may be a part): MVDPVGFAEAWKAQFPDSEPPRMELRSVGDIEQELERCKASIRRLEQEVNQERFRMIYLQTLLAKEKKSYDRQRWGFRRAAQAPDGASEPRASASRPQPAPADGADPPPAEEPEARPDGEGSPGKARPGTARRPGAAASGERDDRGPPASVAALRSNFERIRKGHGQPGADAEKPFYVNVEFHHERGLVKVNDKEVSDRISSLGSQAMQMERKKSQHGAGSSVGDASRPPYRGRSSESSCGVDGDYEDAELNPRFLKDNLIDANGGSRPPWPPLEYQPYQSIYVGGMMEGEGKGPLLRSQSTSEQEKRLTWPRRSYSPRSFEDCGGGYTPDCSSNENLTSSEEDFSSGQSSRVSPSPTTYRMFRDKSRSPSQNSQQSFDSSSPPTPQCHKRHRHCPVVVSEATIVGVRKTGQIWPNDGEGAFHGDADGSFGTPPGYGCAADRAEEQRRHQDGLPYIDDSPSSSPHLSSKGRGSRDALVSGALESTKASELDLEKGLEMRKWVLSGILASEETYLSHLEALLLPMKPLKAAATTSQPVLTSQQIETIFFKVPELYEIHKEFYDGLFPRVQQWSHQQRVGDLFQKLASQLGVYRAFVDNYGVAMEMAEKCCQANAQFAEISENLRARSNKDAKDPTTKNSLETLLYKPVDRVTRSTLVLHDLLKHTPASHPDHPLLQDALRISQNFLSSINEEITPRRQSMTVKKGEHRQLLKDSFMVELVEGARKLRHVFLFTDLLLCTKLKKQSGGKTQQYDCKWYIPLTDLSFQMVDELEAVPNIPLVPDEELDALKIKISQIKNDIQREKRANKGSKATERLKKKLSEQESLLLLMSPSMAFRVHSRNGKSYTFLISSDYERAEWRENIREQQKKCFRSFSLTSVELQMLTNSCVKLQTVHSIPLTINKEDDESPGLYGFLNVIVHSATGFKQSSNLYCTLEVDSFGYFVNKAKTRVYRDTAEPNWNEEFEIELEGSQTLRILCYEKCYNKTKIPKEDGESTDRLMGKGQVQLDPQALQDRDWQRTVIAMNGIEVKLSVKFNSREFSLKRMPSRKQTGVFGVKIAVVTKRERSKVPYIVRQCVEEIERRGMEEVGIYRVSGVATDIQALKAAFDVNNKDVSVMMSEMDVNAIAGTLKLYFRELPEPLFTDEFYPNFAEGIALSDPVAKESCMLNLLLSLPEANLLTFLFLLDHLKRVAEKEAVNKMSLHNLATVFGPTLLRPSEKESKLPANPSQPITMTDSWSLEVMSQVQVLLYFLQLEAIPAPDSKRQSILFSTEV

[14] = system: K562; assay: Induction of ROS generation in human K562 cells assessed as increase in DCF-positive cells at 80 nM incubated for 72 hrs in presence of palladium resins by DCF-DA staining based flow cytometric analysis (reference value: 7.67%); assay type: functional
[15] = system: K562; assay: Induction of cell cycle arrest in human K562 cells assessed as accumulation of cells at G2 phase at 80 nM incubated for 72 hrs by PI staining based flow cytometric analysis ( Rvb = 8.5 %); assay type: functional
[16] = system: HUVEC; assay: Antivascular activity against HUVEC cells assessed as inhibition of cell migration at 80 nM incubated for 24 hrs in presence of palladium resins by phase contrast microscopic analysis; assay type: functional, cell-based; details: Homo sapiens
[17] = system: K562; assay: Induction of apoptosis in human K562 cells assessed as chromatin condensation at 80 nM incubated for 72 hrs in presence of palladium resins by Hoechst 33342 staining based fluorescent microscopic analysis; assay type: functional, cell-based
[18] = system: HUVEC; assay: Antivascular activity against HUVEC cells assessed as inhibition of capillary tube formation at 80 nM incubated for 6 hrs in presence of palladium resins by inverted microscopic analysis; assay type: functional, cell-based; details: Homo sapiens
[19] = system: K562; assay: Induction of apoptosis in human K562 cells assessed as late apoptotic cells at 80 nM incubated for 72 hrs in presence of palladium resins by Annexin V-APC staining based flow cytometric analysis (reference value: 1.36%); assay type: functional
[20] = system: K562; assay: Induction of cell cycle arrest in human K562 cells assessed as accumulation of cells at G2/M phase at 80 nM incubated for 72 hrs by PI staining based flow cytometric analysis ( Rvb = 8.5 %); assay type: functional
[21] = biological target: T1, Tubulin (Homo sapiens); assay: Inhibition of tubulin polymerization in human K562 cells assessed as decrease in alpha tubulin expression at 80 nM incubated for 24 hrs in presence of palladium resins by Western blotting analysis; assay type: cell-based
[22] = system: HepG2; assay: Antitumor activity against human HepG2 cells xenografted in Balb/c mouse assessed as cell necrosis at 20 mg/kg, iv administered daily for 14 days in presence of palladium resins by H and E staining based analysis; assay type: functional, organism-based; details: time 14.0 day
[23] = system: K562; assay: Select factor, ratio of test compound IC50 to 5-fluoro-N-(3-hydroxy-4-methoxybenzyl)-2-morpholinobenzamide IC50 for antiproliferative activity against human K562 cells assessed as reduction in cell viability incubated for 72 hrs by CCK-8 assay; assay type: functional
[24] = system: H22; assay: Antiproliferative activity against mouse H22 cells assessed as reduction in cell viability incubated for 72 hrs by CCK-8 assay; assay type: functional, cell-based; details: H22, 72 h
[25] = system: K562; assay: Induction of apoptosis in human K562 cells assessed as viable cells at 80 nM incubated for 72 hrs by Annexin V-APC staining based flow cytometric analysis (reference value: 94.21%); assay type: functional; details: read-out: Activity
[26] = system: K562; assay: Induction of cell cycle arrest in human K562 cells assessed as accumulation of cells at G1 phase at 80 nM incubated for 72 hrs by PI staining based flow cytometric analysis ( Rvb = 77.46 %); assay type: functional
[27] = biological target: T1, Tubulin (Homo sapiens); assay: Disruption of microtubule organization in human K562 cells assessed as appearance of slim microtubules at 80 nM incubated for 72 hrs by DAPI staining based confocal microscopic analysis; assay type: cell-based
[28] = system: HepG2; assay: Select factor, ratio of test compound IC50 to 5-fluoro-N-(3-hydroxy-4-methoxybenzyl)-2-morpholinobenzamide IC50 for antiproliferative activity against human HepG2 cells assessed as reduction in cell viability incubated for 72 hrs by CCK-8 assay; assay type: functional

Which results are given for `C#CCOc1cc(CNC(=O)c2cc(F)ccc2N2CCOCC2)ccc1OC`?
Activity [1]: Non-toxic; Activity [2]: 4.26%; selectivity ratio at 72 h [3]: 66.2; Activity [4]: Non-toxic; Activity [5]: Active; Activity [6]: inactive; pIC50 [7]: 5.88; Activity [8]: 2.95%; t1/2 [9]: 7.2 h; Activity [10]: Non-toxic; Activity [11]: Active; IC50 at 72 h [12]: 1.42 µM; inhibition [13]: Active; Activity [14]: 54.85%; Activity [15]: 8.97%; Activity [16]: Active; Activity [17]: Active; Activity [18]: Active; Activity [19]: 27.82%; Activity [20]: 8.97%; inhibition [21]: Active; Activity [22]: Active; Ratio IC50 [23]: 69.1; pIC50 [24]: 6.09; viability at 0.08 µM [25]: 92.6%; Activity [26]: 67.39%; Activity [27]: Active; Ratio IC50 [28]: 68.3

Source: ChEMBL document CHEMBL6078643, “Palladium-Mediated Bioorthogonal System for Prodrug Activation of N-Benzylbenzamide-Containing Tubulin Polymerization Inhibitors for the Treatment of Solid Tumors” (J Med Chem, 2024)
